Tests used:
B. subtilis 168 [1] = test: fitness (endpoint OD595 vs no drug) (fraction); higher = more growth
Method in brief: (§1)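 Growth medium was TSB, LB Lennox or CY, and plates were kept at 37 °C. Inoculation was at OD595 0.01 in 384-well plates, at 30 µl per well or 55 µl for S. pneumoniae. OD595 was monitored every 30 min for 14 h and background-subtracted using the first reading. Fitness is the optical density on entering stationary phase divided by the robust mean of no-drug controls, with values capped at 1.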

S. aureus DSM 20231 [2] = test: as above
Method in brief: as §1

S. aureus Newman [3] = test: as above
Method in brief: as §1

S. pneumoniae D39V [4] = test: as above
Method in brief: as §1

B. subtilis 168 [5] = test: Bliss interaction score (quartile over a dose matrix) (fitness difference); higher = more antagonism (negative = synergy)
Method in brief: (§2)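 Combination data were used to infer fitness under each single drug. Fitness is the OD595 at entry into stationary phase divided by the robust mean of the plate's no-drug wells, with a cap of 1. The Bliss score is the observed minus the expected product fitness, summarised by quartiles over technical, biological and donor/recipient replicates.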

S. aureus DSM 20231 [6] = test: as above
Method in brief: as §2

S. aureus Newman [7] = test: as above
Method in brief: as §2

S. pneumoniae D39V [8] = test: as above
Method in brief: as §2
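For Bliss interaction score (quartile over a dose matrix) in this document: first quartile when negative (synergy) and third quartile when positive (antagonism).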

CCCCCCCCCC(=O)N[C@@H](Cc1c[nH]c2ccccc12)C(=O)N[C@H](CC(N)=O)C(=O)N[C@@H](CC(=O)O)C(=O)N[C@@H]1C(=O)NCC(=O)N[C@@H](CCCN)C(=O)N[C@@H](CC(=O)O)C(=O)N[C@H](C)C(=O)N[C@@H](CC(=O)O)C(=O)NCC(=O)N[C@H](CO)C(=O)N[C@@H]([C@H](C)CC(=O)O)C(=O)N[C@@H](CC(=O)c2ccccc2N)C(=O)O[C@@H]1C [Daptomycin] + COc1c(N2C[C@@H]3CCCN[C@@H]3C2)c(F)cc2c(=O)c(C(=O)O)cn(C3CC3)c12 [Moxifloxacin]
Conditions	fitness
B. subtilis 168 [1], first compound 0.125 µg/mL, partner 0.0312 µg/mL	0.0461
B. subtilis 168 [1], first compound 0.125 µg/mL, partner 0.0625 µg/mL	0.0437
B. subtilis 168 [1], first compound 0.125 µg/mL, partner 0.125 µg/mL	0.0394
B. subtilis 168 [1], first compound 0.125 µg/mL, partner 2 µg/mL	0.0342
B. subtilis 168 [1], first compound 0.125 µg/mL, partner 4 µg/mL	0.0583
B. subtilis 168 [1], first compound 0.125 µg/mL, partner 8 µg/mL	0.0431
B. subtilis 168 [1], first compound 0.25 µg/mL, partner 0.0312 µg/mL	0.0537
B. subtilis 168 [1], first compound 0.25 µg/mL, partner 0.0625 µg/mL	0.0246
B. subtilis 168 [1], first compound 0.25 µg/mL, partner 0.125 µg/mL	0.019
B. subtilis 168 [1], first compound 0.25 µg/mL, partner 2 µg/mL	0.0893
B. subtilis 168 [1], first compound 0.25 µg/mL, partner 4 µg/mL	0.0796
B. subtilis 168 [1], first compound 0.25 µg/mL, partner 8 µg/mL	0.124
B. subtilis 168 [1], first compound 0.5 µg/mL, partner 0.0312 µg/mL	0.0547
B. subtilis 168 [1], first compound 0.5 µg/mL, partner 0.0625 µg/mL	0.026
B. subtilis 168 [1], first compound 0.5 µg/mL, partner 0.125 µg/mL	0.0309
B. subtilis 168 [1], first compound 0.5 µg/mL, partner 2 µg/mL	0.0708
B. subtilis 168 [1], first compound 0.5 µg/mL, partner 4 µg/mL	0.044
B. subtilis 168 [1], first compound 0.5 µg/mL, partner 8 µg/mL	0.0672
S. aureus DSM 20231 [2], first compound 0.5 µg/mL, partner 0.0075 µg/mL	0.776
S. aureus DSM 20231 [2], first compound 0.5 µg/mL, partner 0.015 µg/mL	0.754
S. aureus DSM 20231 [2], first compound 0.5 µg/mL, partner 0.03 µg/mL	0.673
S. aureus DSM 20231 [2], first compound 1 µg/mL, partner 0.0075 µg/mL	0.837
S. aureus DSM 20231 [2], first compound 1 µg/mL, partner 0.015 µg/mL	0.786
S. aureus DSM 20231 [2], first compound 1 µg/mL, partner 0.03 µg/mL	0.696
S. aureus DSM 20231 [2], first compound 2 µg/mL, partner 0.0075 µg/mL	0.761
S. aureus DSM 20231 [2], first compound 2 µg/mL, partner 0.015 µg/mL	0.749
S. aureus DSM 20231 [2], first compound 2 µg/mL, partner 0.03 µg/mL	0.655
S. aureus Newman [3], first compound 0.125 µg/mL, partner 0.0075 µg/mL	0.751
S. aureus Newman [3], first compound 0.25 µg/mL, partner 0.0075 µg/mL	0.744
S. aureus Newman [3], first compound 0.25 µg/mL, partner 0.015 µg/mL	0.636
S. aureus Newman [3], first compound 0.5 µg/mL, partner 0.0075 µg/mL	0.774
S. pneumoniae D39V [4], first compound 1 µg/mL, partner 0.005 µg/mL	0.947
S. pneumoniae D39V [4], first compound 1 µg/mL, partner 0.01 µg/mL	0.965
S. pneumoniae D39V [4], first compound 1 µg/mL, partner 0.02 µg/mL	0.846
S. pneumoniae D39V [4], first compound 1 µg/mL, partner 0.0312 µg/mL	0.0587
S. pneumoniae D39V [4], first compound 1 µg/mL, partner 0.0625 µg/mL	0.0444
S. pneumoniae D39V [4], first compound 1 µg/mL, partner 0.125 µg/mL	0.0384
S. pneumoniae D39V [4], first compound 2 µg/mL, partner 0.005 µg/mL	0.946
S. pneumoniae D39V [4], first compound 2 µg/mL, partner 0.01 µg/mL	0.951
S. pneumoniae D39V [4], first compound 2 µg/mL, partner 0.02 µg/mL	0.826
S. pneumoniae D39V [4], first compound 2 µg/mL, partner 0.0312 µg/mL	0.0617
S. pneumoniae D39V [4], first compound 2 µg/mL, partner 0.0625 µg/mL	0.0424
S. pneumoniae D39V [4], first compound 2 µg/mL, partner 0.125 µg/mL	0.0433
S. pneumoniae D39V [4], first compound 4 µg/mL, partner 0.005 µg/mL	0.95
S. pneumoniae D39V [4], first compound 4 µg/mL, partner 0.01 µg/mL	0.988
S. pneumoniae D39V [4], first compound 4 µg/mL, partner 0.02 µg/mL	0.885
S. pneumoniae D39V [4], first compound 4 µg/mL, partner 0.0312 µg/mL	0.0587
S. pneumoniae D39V [4], first compound 4 µg/mL, partner 0.0625 µg/mL	0.0393
S. pneumoniae D39V [4], first compound 4 µg/mL, partner 0.125 µg/mL	0.0263

fitness, one replicate
Conditions	first compound 0.5 µg/mL	first compound 1 µg/mL	first compound 2 µg/mL
B. subtilis 168 [1], partner 0.0312 µg/mL	–	0.0152	–
B. subtilis 168 [1], partner 0.0625 µg/mL	–	0.0268	–
B. subtilis 168 [1], partner 0.125 µg/mL	–	0.0146	–
S. aureus DSM 20231 [2], partner 0.06 µg/mL	0.667	0.654	0.637
S. aureus DSM 20231 [2], partner 0.12 µg/mL	0.49	0.46	0.46

Conditions	Bliss interaction score
B. subtilis 168 [5]	-0.0294
S. aureus DSM 20231 [6]	-0.0667
S. aureus Newman [7]	0.0375
S. pneumoniae D39V [8]	-0.0679

CCCCCCCCCC(=O)N[C@@H](Cc1c[nH]c2ccccc12)C(=O)N[C@H](CC(N)=O)C(=O)N[C@@H](CC(=O)O)C(=O)N[C@@H]1C(=O)NCC(=O)N[C@@H](CCCN)C(=O)N[C@@H](CC(=O)O)C(=O)N[C@H](C)C(=O)N[C@@H](CC(=O)O)C(=O)NCC(=O)N[C@H](CO)C(=O)N[C@@H]([C@H](C)CC(=O)O)C(=O)N[C@@H](CC(=O)c2ccccc2N)C(=O)O[C@@H]1C [Daptomycin] + COc1ccc(C[C@H](N)C(=O)N[C@H]2[C@@H](O)[C@H](n3cnc4c(N(C)C)ncnc43)O[C@@H]2CO)cc1 [Puromycin]
fitness
Conditions	first compound 0.125 µg/mL	first compound 0.25 µg/mL	first compound 0.5 µg/mL	first compound 1 µg/mL	first compound 2 µg/mL	first compound 4 µg/mL
B. subtilis 168 [1], partner 0.39 µg/mL	0.937	0.932	0.894	–	–	–
B. subtilis 168 [1], partner 0.78 µg/mL	0.912	0.91	0.864	–	–	–
B. subtilis 168 [1], partner 1.56 µg/mL	0.906	0.916	0.841	–	–	–
S. aureus DSM 20231 [2], partner 0.39 µg/mL	–	–	0.993	≥ 1	≥ 1	–
S. aureus DSM 20231 [2], partner 0.78 µg/mL	–	–	≥ 1	0.977	≥ 1	–
S. aureus DSM 20231 [2], partner 1.56 µg/mL	0.953	≥ 1	≥ 1	0.989	0.957	–
S. aureus Newman [3], partner 0.39 µg/mL	0.998	1	0.997	–	–	–
S. aureus Newman [3], partner 0.78 µg/mL	0.992	0.989	0.995	–	–	–
S. aureus Newman [3], partner 1.56 µg/mL	≥ 1	0.983	≥ 1	–	–	–
S. pneumoniae D39V [4], partner 1 µg/mL	–	–	–	0.939	0.969	0.922
S. pneumoniae D39V [4], partner 2 µg/mL	–	–	–	0.892	0.876	0.909
S. pneumoniae D39V [4], partner 4 µg/mL	–	–	–	0.32	–	–

fitness, one replicate
Conditions	partner 0.39 µg/mL	partner 0.78 µg/mL	partner 1.56 µg/mL	partner 3.12 µg/mL	partner 6.24 µg/mL
B. subtilis 168 [1], first compound 1 µg/mL	0.719	0.737	0.749	–	–
S. aureus DSM 20231 [2], first compound 0.125 µg/mL	0.935	≥ 1	–	0.968	0.865
S. aureus DSM 20231 [2], first compound 0.25 µg/mL	≥ 1	≥ 1	–	0.932	0.81
S. aureus DSM 20231 [2], first compound 0.5 µg/mL	–	–	–	0.962	0.762

Conditions	Bliss interaction score
B. subtilis 168 [5]	0.0496
S. aureus DSM 20231 [6]	0.0803
S. aureus Newman [7]	0.0477
S. pneumoniae D39V [8]	-0.0975

— the supplement of paper PMC10627819
